Results as given in patent US20250387481A1, “PRE-TREATED T CELLS FOR USE AS A MEDICAMENT” (STICHTING HET NEDERLANDS KANKER INSTITUUT-ANTONI VAN …, priority 2022, published 2025).

Tests used:
KB1P organoids = assay: Co-culture of pre-treated splenic T cells with KB1P organoids (MTT, cleaved-caspase 3); type: cell-based, mouse; details: LCKi 10 μmol/L
[1] = system: MMTV-PyMT organoids expressing OVA; assay: Co-culture of OT I T cells with MMTV-PyMT organoids expressing OVA (cleaved-caspase 3); type: cell-based, mouse; details: LCKi 10 μmol/L
Protocol: Experiments were approved by the Animal Welfare Committee of the Netherlands Cancer Institute and were performed in accordance with national guidelines. Mice were housed in individually ventilated cage (IVC) systems under specific pathogen-free conditions and received chow and water ad libitum. FVB/NRj females (Janvier), C57BL/6-Tg (TcraTcrb) 1100Mjb/J females (OT I mice, Jackson laboratory), and ROSA26mTmG FVB females (NKI) were used at 8-20 weeks of age at the time of fat pad injection of tumor organoids or spleen isolation.
For T cells isolated from mouse mammary tumors, T cells were directly co-cultured with tumor organoids after FACS isolation. For T cells isolated from the spleen, T cells were treated for 72 h with PBS or with docetaxel (docetaxel 10 nmol/L), in the presence or absence of an LCKi (10 μmol/L, Merck Millipore, Cat. No. 213743-31-8). To evaluate the docetaxel-specificity of our observations, T cells were treated with paclitaxel 10 nmol/L or carboplatin 50 μmol/L for 72 h. Subsequently, T cells were collected and washed 3 times in PBS to remove residual chemotherapy or LCKi.
Organoids were fixed in 4% paraformaldehyde in PBS for 20 min at room temperature, followed by permeabilization in 0.2% TritonX-100 in PBS for 15 min at room temperature. […]

[2] = system: A375 (melanoma), EGL1 (hepatobiliary cancer) and MDA-MB-231 (breast cancer); KB1P organoids; assay: Co-culture of cancer cells or KB1P organoids with T cells pretreated with vinblastine; type: cell-based, human; details: Jurkat or mouse splenic T cells pretreated with vinblastine; MTT, cleaved caspase 3
Description: Data are shown for three different cell lines derived from human cancer, namely A375 (melanoma), EGL1 (hepatobiliary cancer) and MDA-MB-231 (breast cancer). Organoid apoptosis (determined by cleaved caspase 3 staining) in breast cancer mouse KB1P organoids following co-culture with mouse splenic T cells pretreated with control, vinblastine or colchicine is also shown in FIG. 18. Data are presented as mean with SEM. N=3 biological repeats per repeat.

Row | Structure (SMILES) | effect of LCK inhibition on docetaxel-increased cytotoxic activity of CD4 or CD8 T cells (KB1P organoids) | killing of OVA-expressing organoids by OT I T cells [1] | T cell mediated cancer cell killing [2]
1 | Nc1ncnc2c1c(-c1ccc(Oc3ccccc3)cc1)cn2C1CCCC1 [LCKi] | did not impair | reduced killing | 
2 | CC[C@]1(O)C[C@@H]2CN(CCc3c([nH]c4ccccc34)[C@@](C(=O)OC)(c3cc4c(cc3OC)N(C)[C@H]3[C@@](O)(C(=O)OC)[C@H](OC(C)=O)[C@]5(CC)C=CCN6CC[C@]43[C@@H]65)C2)C1 [Vinblastine, vinblastine] |  |  | induces T cell mediated cancer cell killing
